In assay [1] the test system is Cx43 hemichannel and pannexin channel mediated ATP release from hCMVEC cells. Put plainly: In vitro ischaemia injury-reperfusion ATP assay. Format: cell-based, human. Conditions: 2-hour injury then 2-hour reperfusion; 100 μM CBX, 100 μM Peptide5, 1 mM Probenecid, 10 μM Tonabersat. On the procedure:
Using an in vitro ischemia injury model, the Cx43 hemichannel and pannexin channel mediated ATP release was differentiated using the connexin hemichannel blocking mimetic peptide5 at 100 μM concentration (S. J. O'Carroll, et al., Cell communication & adhesion 15, 27 (May, 2008)) and 1 mM Probenecid (W. R. Silverman et al., The Journal of biological chemistry 284, 18143 (Jul. 3, 2009)).
Human cerebral microvascular endothelial cells (hCMVEC) were trypsinised (TrypLE Express, Life technologies) and plated at a density of 0.025×10^6 cells per well in a collagen-coated 12-well plate (1 μg/cm2) a day prior to the experiment. Cells were incubated in culture medium overnight. Hypoxic, acidic, ion-shifted Ringer injury solution that mimics ionic concentrations and acid-base shifts of the interstitial space in hypoxic-ischemic brains (A. Bondarenko, et al., Glia 34, 143 (Apr. 15, 2001)) was used to trigger hemichannel opening. […] ATP concentration in the samples was determined using a Luciferin/luciferase bioluminescence reaction (ATP Determination Kit, Molecular Probes) and detected using a luminescence plate reader (VICTOR X, Perkin Elmer #2030-0010). Standard curves were generated in each experiment from an ATP standard (500 nM) to quantify the concentration of ATP in the test samples. […]

In assay [2] the test system is retinal ganglion cells. Description: In vivo retinal ischaemia-reperfusion model, Tonabersat. Also noted: species or system Wistar rats. The settings on record: 7 days; for Retinal ganglion cell density: ischaemic eyes, mean±standard error. The protocol: Animals were anesthetized with an intraperitoneal injection of ketamine (60 mg/kg) and medetomidine hydrochloride (0.4 mg/kg) and the cornea anaesthetized with oxybuprocaine hydrochloride (0.4%). The technique of retinal ischaemia-reperfusion has previously been described (D. Sun, et al., The Journal of comparative neurology 505, 114 (Nov. 1, 2007)). Briefly, the left anterior chamber was cannulated with a 30-gauge infusion needle connected by silicone tubing to a reservoir of sterile 0.9% saline. Cannulation was performed using a stereotaxic manipulator arm to avoid injury to the corneal endothelium, iris, or lens. The intraocular pressure of the cannulated eye was raised to 120 mmHg for 60 minutes by elevating the saline reservoir. Retinal ischaemia-reperfusion was confirmed by pallor of the posterior segment. After 60 minutes, the cannula was removed and reperfusion of the retinal vessels was confirmed by ophthalmoscopy. Three experimental arms were applied at the end of 60 minutes of ischaemia. These included: no treatment (n=6), 10 mg/kg Tonabersat (n=6), or 1 mg/kg Tonabersat (n=4). Systemic delivery of 0.25 mL of a 10 mg/ml or 1 mg/ml Tonabersat solution diluted in 40% PEG, 60% cyclodextrin solution was achieved through intraperitoneal delivery at the start of reperfusion. A final blood Tonabersat concentration of 0.319 mM or 0.0319 mM was intended, assuming a blood volume of 20 mL and total systemic uptake of peptide. Animals were euthanized with CO2 at 7 days after reperfusion. One uninjured animal was euthanized to obtain uninjured retinas as normal controls.
After euthanasia eyes were enucleated, and the cornea, lens, and vitreous humour removed. The dorsal aspect of the retina was notched to retain orientation. The retina and sclera were fixed in 4% PFA in PBS for 60 minutes at room temperature (RT). The retina was then carefully removed from the sclera and permeabilized via incubation in 0.5% Triton-X100 in PBS solution for 15 minutes at […] Retinas were mounted onto SuperFrost Plus slides using citifluor mounting medium, and imaged.
Two fields in each quadrant of each retina were imaged giving a total of eight images per retina. This method insured similar locations were assessed between different eyes and avoided any possible area bias present in the retina. Retinal ganglion cell (RGC) labelling was imaged at 10× magnification. […] Spots of one or two pixels that resulted from noise and artefacts that were clearly not RGC of origin were excluded during particle counts. RGC density was calculated as the number of RGCs per cm2.

Molecules are shown by their SMILES.

Regarding `CC(=O)c1ccc2c(c1)[C@H](NC(=O)c1ccc(F)c(Cl)c1)[C@H](O)C(C)(C)O2` [Tonabersat, N-[(3S,4S)-6-acetyl-3-hydroxy-2,2-dimethyl-3,4-dihydrochromen-4-yl]-3-chloro-4-fluorobenzamide], the “ATP release, percentage of the injury-reperfusion (IR) control” value in assay [1] worked out at 68.9±6.9%. Moreover, the “RGC loss compared to normal controls” value is listed as 18% in assay [2] (1 mg/kg intraperitoneal at start of reperfusion) and 35% in assay [2] (10 mg/kg intraperitoneal at start of reperfusion). Moreover, the “Retinal ganglion cell density” value came to 199927±26058 cells/cm2 in assay [2] (1 mg/kg intraperitoneal) and 158739±26370 cells/cm2 in assay [2] (10 mg/kg intraperitoneal).

(Values after patent US11401516B2, “Channel modulators” (AUCKLAND UNISERVICES LIMITED, priority 2014, dated 2022).)
